{"source": "patent US7494988B2", "about": "“Inhibitors of serine proteases, particularly hepatitis C virus NS3 protease” (Vertex Pharmaceuticals Incorporated, priority 2000, dated 2009)", "target": "HCV NS3 serine protease (Hepatitis C virus genotype 1a, UniProt P27958)", "sequence (P27958 1027-1657)": "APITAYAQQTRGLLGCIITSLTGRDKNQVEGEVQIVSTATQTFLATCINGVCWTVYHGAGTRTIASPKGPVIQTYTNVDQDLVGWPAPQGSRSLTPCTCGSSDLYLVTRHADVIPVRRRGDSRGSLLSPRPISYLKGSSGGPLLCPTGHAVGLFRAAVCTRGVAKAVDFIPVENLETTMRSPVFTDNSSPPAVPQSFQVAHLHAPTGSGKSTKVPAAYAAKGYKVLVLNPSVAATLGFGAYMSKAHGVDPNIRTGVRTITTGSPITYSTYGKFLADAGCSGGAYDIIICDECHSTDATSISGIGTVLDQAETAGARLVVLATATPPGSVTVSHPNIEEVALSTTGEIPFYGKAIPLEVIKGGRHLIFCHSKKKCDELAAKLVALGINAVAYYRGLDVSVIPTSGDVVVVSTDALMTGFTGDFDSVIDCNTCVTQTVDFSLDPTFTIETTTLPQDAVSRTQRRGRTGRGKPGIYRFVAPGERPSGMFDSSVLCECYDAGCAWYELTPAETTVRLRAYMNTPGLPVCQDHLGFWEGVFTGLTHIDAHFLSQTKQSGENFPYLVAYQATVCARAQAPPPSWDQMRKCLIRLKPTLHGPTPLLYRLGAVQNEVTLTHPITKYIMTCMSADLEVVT", "experiment": "Inhibition of HCV NS3 serine protease, spectrophotometric assay (5A-pNA cleavage)", "assay_type": "biochemical", "conditions": "EDVVAbuC-p-nitroanilide (5A-pNA) substrate, 30° C., pNA release at 405 nm", "description": "Insofar as compounds of formula (I) are able to inhibit NS3 serine protease, they are of evident clinical utility for the treatment of viral diseases, including HCV. The compounds of this invention are tested for their ability to inhibit HCV in the following spectrophotometric assay.\nThe spectrophotometric assays were run in a 96-well microtiter plate at 30° C., using a SpectraMax 250 reader (Molecular Devices, Sunnyvale, Calif.) with kinetic capability. Cleavage of EDVVAbuC-p-nitroanilide (5A-pNA) substrate was performed with or without NS4A in the same buffer used for HPLC assays at 30° C., and pNA release was monitored at 405 nm. […]\nKinetic constants for the rapid equilibrium ordered bisubstrate reaction were determined from rate vs. [4A], [EDVV AbuC-pNA] data by non-linear least squares fitting to equation 1 [J. F. Morrison, Biochim. […] Kii and Kis values for peptidyl inhibitors were determined from rate vs. [inhibitor], [substrate] data and fitting to the equation for mixed inhibition: rate=Vmax[S]/{Km(1+[I]/Kis)+[S](1+[I]/Kii)} The commercial program KinetAsyst (StateCollege, Pa.) was used for both procedures. Ki values were calculated from rate vs. [inhibitor] plots by a nonlinear least squares fit of the data to the equation of Morrison for tight binding competitive inhibition [J. F. Morrison, Biochim. […]"}
{"smiles": "CCC[C@H](NC(=O)C1C[C@@H](OC(=O)N2CCc3ccccc3C2)CN1C(=O)[C@@H](NC(=O)[C@@H](NC(=O)c1cnccn1)C(C)C)C(C)C)C(=O)C(=O)N1CC(Oc2ccccc2)C1", "note": "(some centres unmarked) [Compound 9]", "values": [{"measurement": "Ki", "result": "< 1000", "unit": "nM"}]}
{"smiles": "CCC[C@H](NC(=O)C1C[C@@H](OC(=O)N2CCc3ccccc3C2)CN1C(=O)[C@@H](NC(=O)[C@@H](NC(=O)c1cnccn1)C(C)C)C(C)C)C(=O)C(=O)N1CCC1", "note": "(some centres unmarked) [Compound 7]", "values": [{"measurement": "Ki", "result": "< 1000", "unit": "nM"}]}
